Experimental data: ChEMBL document CHEMBL1240358, “Activity of a new antipseudomonal cephalosporin, CXA-101 (FR264205), against carbapenem-resistant and multidrug-resistant Pseudomonas aeruginosa clinical strains” (2010)
Converted amounts (≈) assume the structure as drawn.

Assays:
Type in all cases: functional
Pseudomonas aeruginosa [1] = experiment: Antibacterial activity against carbapenem-resistant Pseudomonas aeruginosa isolate 3C9 GM1 harboring acquired beta-lactamase OXA-144 by broth microdilution method
Pseudomonas aeruginosa [2] = experiment: Antibacterial activity against carbapenem-resistant Pseudomonas aeruginosa isolate 1D5 SA1 harboring acquired beta-lactamase VIM-2 by broth microdilution method
Pseudomonas aeruginosa [3] = experiment: Antibacterial activity against Pseudomonas aeruginosa assessed as percent nonsusceptible isolates by broth microdilution assay
Pseudomonas aeruginosa [4] = experiment: Antibacterial activity against Pseudomonas aeruginosa PAO1 harboring acquired beta-lactamase OXA-2 by broth microdilution method
Pseudomonas aeruginosa [5] = experiment: Antibacterial activity against carbapenem-resistant Pseudomonas aeruginosa isolate 1E2 PpA1 harboring acquired beta-lactamase OXA-144 by broth microdilution method
Pseudomonas aeruginosa [6] = experiment: Antibacterial activity against carbapenem-resistant Pseudomonas aeruginosa isolate 3C1 VAL6 by broth microdilution method
Pseudomonas aeruginosa [7] = experiment: Antibacterial activity against Pseudomonas aeruginosa PAO1 harboring acquired beta-lactamase OXA-144 by broth microdilution method
Pseudomonas aeruginosa [8] = experiment: Antibacterial activity against carbapenem-resistant Pseudomonas aeruginosa isolate 1E3 PpA2 harboring acquired beta-lactamase OXA-101 by broth microdilution method
Pseudomonas aeruginosa [9] = experiment: Antibacterial activity against carbapenem-resistant Pseudomonas aeruginosa isolate 1B2 RCA2 harboring acquired beta-lactamase PER-1 by broth microdilution method
Pseudomonas aeruginosa [10] = experiment: Antibacterial activity against carbapenem-resistant Pseudomonas aeruginosa isolate 3D2 GM2 harboring acquired beta-lactamase BEL-3 by broth microdilution method
Pseudomonas aeruginosa [11] = experiment: Antibacterial activity against carbapenem-resistant Pseudomonas aeruginosa isolate 3C8 GM1 harboring acquired beta-lactamase OXA-144 by broth microdilution method
Pseudomonas aeruginosa [12] = experiment: Antibacterial activity against carbapenem-resistant Pseudomonas aeruginosa isolate 1E1 PpA1 harboring acquired beta-lactamase OXA-144 by broth microdilution method
Pseudomonas aeruginosa [13] = experiment: Antibacterial activity against carbapenem-resistant Pseudomonas aeruginosa isolate 1C3 PTOL1 harboring acquired beta-lactamase OXA-17 by broth microdilution method
Pseudomonas aeruginosa [14] = experiment: Antibacterial activity against carbapenem-resistant Pseudomonas aeruginosa isolate 1C2 PTOL1 harboring beta-lactamase OXA-17 by broth microdilution method
Pseudomonas aeruginosa [15] = experiment: Antibacterial activity against Pseudomonas aeruginosa PAO1 by broth microdilution method

## C[C@@H](O)[C@H]1C(=O)N2C(C(=O)O)=C(SCCNC=N)C[C@H]12 [IMIPENEM ANHYDROUS]
Pseudomonas aeruginosa [1]
  MIC: > 64 µg/mL
Pseudomonas aeruginosa [2]
  MIC: > 64 µg/mL
Pseudomonas aeruginosa [3]
  Activity: 33.9%
Pseudomonas aeruginosa [4]
  MIC: 1 µg/mL (≈ 3.34 µM)
Pseudomonas aeruginosa [5]
  MIC: > 64 µg/mL
Pseudomonas aeruginosa [6]
  MIC: > 64 µg/mL
Pseudomonas aeruginosa [7]
  MIC: 1 µg/mL (≈ 3.34 µM)
Pseudomonas aeruginosa [8]
  MIC: 16 µg/mL (≈ 53.4 µM)
Pseudomonas aeruginosa [9]
  MIC: 64 µg/mL (≈ 214 µM)
Pseudomonas aeruginosa [10]
  MIC: 64 µg/mL (≈ 214 µM)
Pseudomonas aeruginosa [11]
  MIC: > 64 µg/mL
Pseudomonas aeruginosa [12]
  MIC: > 64 µg/mL
Pseudomonas aeruginosa [13]
  MIC: > 64 µg/mL
Pseudomonas aeruginosa [14]
  MIC: > 64 µg/mL
Pseudomonas aeruginosa [15]
  MIC: 1 µg/mL (≈ 3.34 µM)

## C[C@@H](O)[C@H]1C(=O)N2C(C(=O)O)=C(S[C@@H]3CN[C@H](C(=O)N(C)C)C3)[C@H](C)[C@H]12 [MEROPENEM]
Pseudomonas aeruginosa [1]
  MIC: 4 µg/mL (≈ 10.4 µM)
Pseudomonas aeruginosa [2]
  MIC: 16 µg/mL (≈ 41.7 µM)
Pseudomonas aeruginosa [3]
  Activity: 52.1%
Pseudomonas aeruginosa [4]
  MIC: 0.5 µg/mL (≈ 1.3 µM)
Pseudomonas aeruginosa [5]
  MIC: 32 µg/mL (≈ 83.4 µM)
Pseudomonas aeruginosa [6]
  MIC: 4 µg/mL (≈ 10.4 µM)
Pseudomonas aeruginosa [7]
  MIC: 0.5 µg/mL (≈ 1.3 µM)
Pseudomonas aeruginosa [9]
  MIC: 16 µg/mL (≈ 41.7 µM)
Pseudomonas aeruginosa [10]
  MIC: 4 µg/mL (≈ 10.4 µM)
Pseudomonas aeruginosa [11]
  MIC: 4 µg/mL (≈ 10.4 µM)
Pseudomonas aeruginosa [12]
  MIC: 16 µg/mL (≈ 41.7 µM)
Pseudomonas aeruginosa [15]
  MIC: 0.25 µg/mL (≈ 0.652 µM)

## CCN1CCN(C(=O)N[C@@H](C(=O)N[C@@H]2C(=O)N3[C@@H]2SC(C)(C)[C@@H]3C(=O)O)c2ccccc2)C(=O)C1=O [PIPERACILLIN]
Pseudomonas aeruginosa [3]
  Activity: 28.4%
Pseudomonas aeruginosa [4]
  MIC: 32 µg/mL (≈ 61.8 µM)
Pseudomonas aeruginosa [7]
  MIC: 16 µg/mL (≈ 30.9 µM)
Pseudomonas aeruginosa [15]
  MIC: 4 µg/mL (≈ 7.73 µM)

## NC[C@H]1O[C@H](O[C@H]2[C@H](O)[C@@H](O[C@H]3O[C@H](CO)[C@@H](O)[C@H](N)[C@H]3O)[C@H](N)C[C@@H]2N)[C@H](N)C[C@@H]1O [TOBRAMYCIN]
Pseudomonas aeruginosa [1]
  MIC: 16 µg/mL (≈ 34.2 µM)
Pseudomonas aeruginosa [2]
  MIC: 64 µg/mL (≈ 137 µM)
Pseudomonas aeruginosa [3]
  Activity: 33.9%
Pseudomonas aeruginosa [5]
  MIC: 64 µg/mL (≈ 137 µM)
Pseudomonas aeruginosa [6]
  MIC: < 0.12 µg/mL
Pseudomonas aeruginosa [8]
  MIC: > 64 µg/mL
Pseudomonas aeruginosa [9]
  MIC: < 0.12 µg/mL
Pseudomonas aeruginosa [10]
  MIC: 8 µg/mL (≈ 17.1 µM)
Pseudomonas aeruginosa [11]
  MIC: 16 µg/mL (≈ 34.2 µM)
Pseudomonas aeruginosa [12]
  MIC: 64 µg/mL (≈ 137 µM)
Pseudomonas aeruginosa [13]
  MIC: 64 µg/mL (≈ 137 µM)
Pseudomonas aeruginosa [14]
  MIC: 32 µg/mL (≈ 68.4 µM)

## GENTAMICIN
Pseudomonas aeruginosa [3]
  Activity: 58.9%
